Results reported in PubChem BioAssay (NCI).
Several values for one entry are separate records, joined by “and”; a condition that tells them apart may be missing. Equal entries are not always repeated.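 A five-concentration, 48-hour dose response in 96-well plates underlies each endpoint, interpolated linearly between surrounding concentrations. Here, GI50 denotes the concentration required for 50% inhibition of growth. The concentration for full growth arrest is given as TGI.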

Test system: MDA-MB-468 breast
Experiment: inhibition of tumour cell growth, NCI panel, 48 h

Compound	GI50	TGI
Cc1sc2c(c1C)C(c1ccc(Cl)cc1)=N[C@@H](CC(=O)OC(C)(C)C)c1nnc(C)n1-2	0.0708 µM and 0.112 µM	1.52 µM and 10.8 µM
CC(C)(C)CC(C)(C)NCc1cc(C(C)(C)C)cc(CNC(C)(C)CC(C)(C)C)c1O	1.26 µM	2.85 µM
N#Cc1c(NC(=O)c2ccccc2C(F)(F)F)sc2c1CCC(=O)C2	1.69 µM	4.68 µM
O=C(N/N=C/c1ccc([N+](=O)[O-])s1)c1[nH]c2ccc(Br)cc2c1-c1ccccc1	0.731 µM	22.2 µM
COc1ccc(C(=O)c2cc3c(N)c(C(=O)Nc4ccc(C)cc4)sc3nc2C)cc1	1.87 µM	7.08 µM
COc1cc(Nc2nc3ccccc3cc2C(=O)Nc2ccc(F)c(F)c2)cc(OC)c1OC	2.01 µM	6.58 µM
COc1cc(-c2nc(-c3nc4ccccc4[nH]3)cc3c2[nH]c2ccccc23)cc(OC)c1OC	3.32 µM	> 100 µM
O=C1/C(=C\c2ccccn2)c2ccccc2N1c1c(Cl)cccc1Cl	1.26 µM	3.1 µM
Cc1cc(CC(C)CC(C)(C)C)n(O)c(=O)c1 (configuration not stated) (tested in a mixture with another compound)	0.273 µM	1.06 µM
Cc1nc(N2CCC3(CC2)CO[C@@H](C)[C@H]3N)c(CO)nc1Sc1ccnc(N)c1Cl	0.228 µM	4.86 µM
Nc1nc(N)c2cc(NCc3ccc(Cl)c(Cl)c3)ccc2n1	1.06 µM	2.23 µM
COc1ccc2c(c1)CC[C@H](O)/C2=C/c1cc(OC)c(OC)c(OC)c1	0.2 µM	15.8 µM
CNC(=O)Cc1nc(-c2cccc(NS(=O)(=O)c3c(F)cccc3F)c2F)c(-c2ccnc(Nc3ccccc3)n2)s1	> 23.4 µM	> 50 µM
O=C(OCc1ncc(-c2ccc(C(F)(F)F)cc2)c(NC2CCCCCC2)n1)c1c(F)c(F)c(F)c(F)c1F	2 µM	5.01 µM
NC(=O)c1cccc(Nc2nccc(Nc3cccc4[nH]ncc34)n2)c1	2.12 µM	9.35 µM
CCCC(CCC)C(=O)OCC1(CO)C/C(=C\c2ccc(F)cc2)C(=O)O1 (configuration not stated)	11.3 µM	24.2 µM
CCOC(=O)CC1C(COC(=O)NC)OC(n2cnc3c(NC(=O)Nc4ccccc4)ncnc32)C1O[Si](C)(C)C(C)(C)C (configuration not stated)	19.7 µM	94.1 µM
COc1cccc(C2c3cc4c(cc3OC(N3CCCC3)C2C)OCO4)c1O (configuration not stated)	3.33 µM	15.8 µM
COC(=O)c1cc(O)c2c(c1C(=O)OC)C[C@H]1[C@@H]3CC=C4C[C@@H](O)CC[C@]4(C)[C@H]3CC[C@]21C	2.87 µM	18.1 µM
Cc1ccc(C)c(C2NC(=O)c3ccccc3N2)c1 (configuration not stated)	4.38 µM	> 100 µM
COc1cccc(NC(=O)c2sc3nc4c(cc3c2N)C(=O)CCC4)c1	0.0467 µM	> 100 µM
